Measurements as given in patent US7264314B2, “Adrenocorticotropic hormone analogs and related methods” (priority 2004, dated 2007).

Assays:
[1] = system: ACTH-induced serum corticosterone in dexamethasone-suppressed mice; experiment: in vivo Serum Corticosteroid Inhibition Assay; design: species or system FVB/N mice; conditions: peptide alone 120 minutes after dexamethasone, blood one hour later
Excerpt: An in vivo Serum Corticosteroid Inhibition Assay measures the level of corticosteroid or corticosterone in the blood stream of a subject after administering a compound having a first corticosteroid-producing biological activity and a test compound. The compound having the corticosteroid-producing biological activity can be any compound known to induce a detectable increase in corticosteroid production. The test compound can be administered before the corticosteroid-producing compound, in combination with the corticosteroid-producing compound, and/or after the corticosteroid-producing compound. The corticosteroid-producing compound is preferably ACTH, but can also be an ACTH analog with a known corticosteroid-producing biological activity. By performing a series of in vivo Serum Corticosteroid Inhibition Assays using ACTH analog test compounds, ACTH analogs that inhibit the production of corticosteroid relative to the corticosteroid-producing compound used can be identified. Preferably, the ACTH analogs identified in this manner inhibit the production of corticosteroid in the presence of endogenous unmodified ACTH.
The in vivo Serum Corticosteroid Inhibition Assay can include sequential administration of the test compound and the corticosteroid-producing compound by the following steps: first, an agent to suppress endogenous ACTH production was administered to a mouse subject, such as an intraperitoneal injection of dexamethasone; second, after waiting a suitable period of time for suppression of endogenous ACTH production (e.g., 1.5–2.0 hours), a test compound was administered to the mouse by a suitable method, such as intraperitoneal injection; third, after waiting a suitable period of time (e.g., 1 hour) for action of the test compound, a compound with corticosteroid-producing activity can be administered to the mouse by a suitable method, such as intraperitoneal injection; and fourth, after waiting a suitable period of time for the biological activity of both administered compounds to occur (e.g., 1 hour), a blood sample was taken from the subject and the level of serum corticosterone was determined by a suitable method, such as a competitive radioimmunoassay using ^125I RIA kit (ICN, Costa Mesa, Calif.). Optionally, steps two and three can be reversed (administering the corticosteroid-producing compound first, followed by administration of the test compound). The in vivo Serum Corticosteroid Inhibition Assay can also include co-administration of the test compound and the corticosteroid-producing compound by the following steps: first, an agent to suppress endogenous ACTH production was administered to a mouse subject, such as an intraperitoneal injection of dexamethasone; second, after waiting a suitable period of time for suppression of endogenous ACTH production (e.g., 1.5–2.0 hours), the corticosteroid-producing compound and a test compound were co-administered to the mouse by a suitable method, such as intraperitoneal injection; and third, after waiting a suitable period of time for the biological activity of both administered compounds to occur (e.g., 1 hour), a blood sample was taken from the subject and the level of serum corticosterone was determined by a suitable method, such as a competitive radioimmunoassay using ^125I RIA kit (ICN, Costa Mesa, Calif.). Also, in some embodiments, the first step in any in vivo Serum Corticosteroid Inhibition Assay can be replaced by a measurement of the initial endogenous corticosteroid or corticosteroid level in the blood of the subject in the manner of step four, instead of administering the agent to suppress ACTH production. Example 2 describes murine in vivo Serum Corticosteroid Inhibition Assays in detail.
A series of separate in vivo Serum Corticosteroid Inhibition Assays were performed to identify ACTH analogs that inhibit ACTH adrenal hormone production in vivo. […]

[2] = target: T1, adrenal ACTH receptors such as MC-2R (explanted adrenal membrane) (Mus musculus, UniProt Q64326); experiment: in vitro Serum-free Adrenal Competitive Binding Assay; design: species or system mice; conditions: cold peptide at 10 nM, 100 nM, 1000 nM
T1 construct: the adrenal halves were macerated or otherwise dissociated using Dounce Homogenizer to form a membrane fraction; from tissue; host or cells: membrane fraction of explanted mouse adrenal glands
T1 sequence (Q64326 whole entry): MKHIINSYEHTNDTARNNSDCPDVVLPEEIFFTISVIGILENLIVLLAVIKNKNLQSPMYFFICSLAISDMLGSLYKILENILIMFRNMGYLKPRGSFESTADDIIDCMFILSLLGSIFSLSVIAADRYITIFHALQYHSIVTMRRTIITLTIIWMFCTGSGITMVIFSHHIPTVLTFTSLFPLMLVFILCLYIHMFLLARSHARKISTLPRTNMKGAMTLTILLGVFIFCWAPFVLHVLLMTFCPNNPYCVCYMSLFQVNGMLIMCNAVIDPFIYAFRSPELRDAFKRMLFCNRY
T1 sequence (Q9D159 whole entry partner): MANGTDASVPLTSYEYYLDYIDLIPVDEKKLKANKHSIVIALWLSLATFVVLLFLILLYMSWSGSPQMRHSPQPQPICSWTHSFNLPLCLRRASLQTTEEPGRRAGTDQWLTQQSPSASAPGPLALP
Excerpt: ACTH analog compounds that bind to adrenal membrane with a greater affinity than endogenous unmodified ACTH, and are able to displace unmodified ACTH can be identified using an in vitro Serum-free Adrenal Competitive Binding Assay (Example 3). […] A higher CPM level indicates the presence of greater amounts of the radiolabelled compound. […] Column 220 indicates the level of radio-labeled unmodified mACTH(1–24) detected after combining the explanted adrenal membrane with only the radio-labeled mACTH(1–24) for 2 hours.(no competitive binding). Columns 230, 240, and 250 show the results of competitive binding assays for binding of non-radio-labeled (“cold”) mACTH(1–24) to displace the radio-labeled mACTH(1–24) from the explanted adrenal membrane (measured in column 220) by competitive binding to receptors such as MC-2R on the adrenal membrane. […]
ACTH analogs with the ability to bind adrenal receptors with a greater affinity than compounds with known adrenal binding activity (preferably ACTH) can also be identified by performing an in vitro Adrenal Competitive Binding Assay, whereby measurement of the reduction in the amount of the radiolabelled adrenal-binding compound (e.g., ACTH) is measured at various concentrations of non-radio-labeled ACTH analog test compound in a medium containing explanted adrenal membrane. […]

[3] = in vivo; cited from earlier work

N-Ser^1-Tyr-Ser-Met-Glu^5-His-Phe-Arg-Trp-Gly^10-Lys-Pro-Val-Gly-Lys^15-Lys-Arg-Arg-Pro-Val^20-Lys-Val-Tyr-Pro-Ac [mACTH(1–24), reference compound]
serum corticosterone level at 180 minutes [1]: 500 ± 76 ng/mL | serum corticosterone level at 180 minutes ([1]; listed as ACTH): 500 ± 76 ng/mL | displacement of radio-labeled mACTH(1–24) from explanted adrenal membrane (CPM) [2]: displacement of the radio-labeled mACTH(1–24) | half life in blood [3]: less than 20 minutes
